Measured values as given in patent publication US20240034717A1, “NOVEL POTASSIUM CHANNEL INHIBITORS” (Saniona A/S, priority 2020, published 2024).
“And” between values parts separate entries of the source, which are not always exact repeats. Equal entries are not always repeated.

Columns and labels:
[1] = biological target: erythrocyte KCa3.1 channels (Homo sapiens (Human), UniProt O15554); assay: Erythrocyte KCa3.1 assay; format: cell-based; settings: human erythrocytes, A23187-activated KCa3.1; read-out: RBC K (in vitro) Human IC50 (μM) Potency category
Experimental: Human blood was drawn from healthy human volunteers in a standard heparinized blood sampling vial (Vacutainer, Li/heparin, ED Bioscience, Plymouth, UK). The erythrocytes were packed by centrifugation, and the plasma and buffy coat were removed by aspiration. Erythrocytes were washed three times in the experimental salt solution and then stored at 0° C. until use. Blood samples from NMRI mice or from Wistar rats were treated similarly. The methodological principle is outlined in Macey et al. (1978) and further described in Strøbaek et al. (2013). Activation of the erythrocyte KCa3.1 channels were obtained by addition of the Ca^2+ ionophore A23187, which causes synchronized hyperpolarization, which is reported as a CCCP-mediated shift in the unbuffered extracellular pH of the erythrocyte suspension. Standard procedure: 3 mL unbuffered experimental salt solution (in mM: 2 KCl, 154 NaCl, 0.05 CaCl2) was heated to 37° C. with stirring. Packed erythrocytes were added (50 μL, final cytocrit 1.5%), and the extracellular pH (pHo) followed with a glass/calomel (pHG200-8/REF200, Radiometer, Denmark) electrode pair. CCCP (3 μL, final concentration 20 μM) was added followed by varying concentrations of test compounds (DMSO concentration constant). After pH stabilization at ˜7.2, A23187 (3 μL, final concentration 0.33 μM) was added to initiate the experiment. After the peak hyperpolarization was attained, the intracellular pH (pHi constant during the experiment) was found by haemolysing the erythrocytes via addition of 100 μL of Triton-X100.
The erythrocyte membrane potential, Vm, was calculated according to: […]
and the fractional remaining Ca^2+-activated K^+-conductance at the concentration C of blocker, fGK(C), was calculated from
where the K^+ equilibrium potential EK=−107 mV, the Cl^− equilibrium potential ECl=−12 mV and the Vm(0) and Vm(C) are the peak hyperpolarizations in the control and in the presence of a concentration of C of blocker respectively.
IC50 values for compounds were calculated from a plot of fGK(C) versus C by a fit to the Hill equation, using a custom program written in the IGOR-Pro software (WaveMetrics, Lake Oswego, OR, USA). All IC50-values are reported in μM.

[2] = physchem; settings: for solubility at 16 h: 25 °C, pH 7.4, aqueous buffer, kinetic from dmso stock
Experimental: 2.79 g of K2HPO4 and 0.54 g of KH2PO4 was dissolved in 390 mL of milliQ water. pH was adjusted to 7.4 using 1N HCl/1N NaOH and final volume was made up to 400 mL with milliQ water.
In case of compounds not soluble/less quantity submission, 40/20/10Mm stocks were prepared and used for experiment.
Assay Procedure: • 245 μL of 50 mM phosphate buffer then 5 μL each of test compound/standards (80 mM) in their respective positions was added to the 1.1 mL 96 well plate. • DMSO Controls was prepared by taking 245 μL of 100% DMSO then 5 μL each of test compound in their respective positions and added to the 1.1 mL 96 well plate • Plate was incubated with mixing at 1600 RPM for 16 hours at room temperature (˜23 MC). • After incubation, samples were filtered using Millipore plates. • Filtrates were analysed by HPLC-UV.
Solubility is calculated using the following formula: […]

[3] = 50 mM potassium phosphate buffer pH 7.40, 16 hr at ~25° C., incubation concentration 1600 μM

| Structure (SMILES) | IC50 [1] | solubility at 16 h [2] | Measured Solubility in pH 7.4 phosphate buffer (mg/ml) [2, 3] | Measured Solubility in pH 7.4 phosphate buffer (μM) [2, 3] | Measured Solubility in pH 7.4 phosphate buffer (μM) ([2]; 16 h, pH 7.4) |
| --- | --- | --- | --- | --- | --- |
| COC(=O)N(CC(C)(C)N)C1(c2cccc(Cl)c2)CC1 [Methyl (2-amino-2-methylpropyl)(1-(3-chlorophenyl)cyclopropyl)carbamate] | < 1 µM | 634 µg/mL and 1500 µM | – | – | – |
| CCOC(=O)N(C[C@@H]1CCCN1)C1(c2ccc(F)c(C(F)(F)F)c2)CC1 [Ethyl (S)-(1-(4-fluoro-3-(trifluoromethyl)phenyl)cyclopropyl)(pyrrolidin-2-ylmethyl)carbamate] | < 0.3 µM | 594 µg/mL and 1400 µM | – | – | – |
| N[C@H]1CCC[C@@H]1NC1(c2ccc(F)c(C(F)(F)F)c2)CC1 [(1S,2S)-N1-(1-(4-fluoro-3-(trifluoromethyl)phenyl)cyclopropyl)-cyclopentane-1,2-diamine] | < 1 µM | 239 µg/mL and 700 µM | – | – | – |
| CCOC(=O)N(C[C@@H]1CCCN1C)C1(c2ccc(F)c(C(F)(F)F)c2)CC1 [Ethyl (S)-(1-(4-fluoro-3-(trifluoromethyl)phenyl)cyclopropyl)((1-methylpyrrolidin-2-yl)methyl) carbamate] | < 0.3 µM | – | 0.5679 mg/ml | 1500 μM | – |
| COC(=O)N(CC(C)(C)N)C1(c2cccc(Br)c2)CC1 [Methyl (2-amino-2-methylpropyl)(1-(3-bromophenyl)cyclopropyl)carbamate] | < 1 µM | 376 µg/mL and 800 µM | – | – | – |
| O=C(OC1CC1)N(C[C@@H]1CCCN1)C1(c2ccc(F)c(C(F)(F)F)c2)CC1 [Cyclopropyl (S)-(1-(4-fluoro-3-(trifluoromethyl)phenyl)cyclopropyl)(pyrrolidin-2-ylmethyl)carbamate] | < 0.3 µM | 601 µg/mL and 1600 µM | – | – | – |
| CN1CCC[C@H]1CN(C1(c2ccc(F)c(C(F)(F)F)c2)CC1)S(C)(=O)=O [(S)-N-(1-(4-fluoro-3-(trifluoromethyl)phenyl)cyclopropyl)-N-((1-methylpyrrolidin-2-yl)methyl)methanesulfonamide] | < 0.3 µM | 621 µg/mL and 1600 µM | – | – | – |
| COC(=O)N(C[C@H]1CCCN1)C1(c2ccc(F)c(OC(F)(F)F)c2)CC1 [Methyl (R)-(1-(4-fluoro-3-(trifluoromethoxy)phenyl)cyclopropyl)(pyrrolidin-2-ylmethyl)carbamate] | < 1 µM | 677 µg/mL and 1600 µM | – | – | – |
| CCOC(=O)N(C[C@H]1CCCN1)C1(c2ccc(F)c(C(F)(F)F)c2)CC1 [Ethyl (R)-(1-(4-fluoro-3-(trifluoromethyl)phenyl)cyclopropyl)(pyrrolidin-2-ylmethyl)carbamate] | < 0.3 µM | 616 µg/mL and 1500 µM | – | – | – |
| CS(=O)(=O)N(C[C@@H]1CCCN1)C1(c2ccc(F)c(C(F)(F)F)c2)CC1 [(S)-N-(1-(4-fluoro-3-(trifluoromethyl)phenyl)cyclopropyl)-N-(pyrrolidin-2-ylmethyl) methanesulfonamide] | < 1 µM | – | 0.3218 mg/ml | 800 μM | – |
| NC1(CNC2(c3ccc(F)c(C(F)(F)F)c3)CC2)CC1 [N-((1-aminocyclopropyl)methyl)-1-(4-fluoro-3-(trifluoromethyl)phenyl)cyclopropan-1-amine] | < 0.3 µM | 464 µg/mL and 1400 µM | – | – | – |
| Fc1ccc(C2(N(CC3CC3)C3CNC3)CC2)cc1C(F)(F)F [N-(cyclopropylmethyl)-N-(1-(4-fluoro-3-(trifluoromethyl)phenyl)cyclopropyl)azetidin-3-amine] | < 0.3 µM | 679 µg/mL and 1500 µM | – | – | – |
| O=C1CSc2ccccc2N1Cc1cccc(C(F)(F)F)c1 [NS6180, 4-[[3-(Trifluoromethyl)-phenyl]methyl]-2H-1,4-benzothiazin-3(4H)-one, reference compound] | – | 2.8 µM and 0.9 µg/mL | – | – | 2.8 μM |

Next, values leading:

| IC50 [1] | solubility at 16 h [2] | Measured Solubility in pH 7.4 phosphate buffer (mg/ml) [2, 3] | Measured Solubility in pH 7.4 phosphate buffer (μM) [2, 3] | Measured Solubility in pH 7.4 phosphate buffer (μM) ([2]; 16 h, pH 7.4) | Structure (SMILES) |
| --- | --- | --- | --- | --- | --- |
| < 0.3 µM | 511 µg/mL and 1500 µM | – | – | – | CC(C)(N)CN(CC1CC1)C1(c2ccc(F)c(C(F)(F)F)c2)CC1 [N1-(cyclopropylmethyl)-N1-(1-(4-fluoro-3-(trifluoromethyl)phenyl)cyclopropyl)-2-methyl propane-1,2-diamine] |
| < 0.3 µM | 556 µg/mL and 1600 µM | – | – | – | COC(=O)N(CC(C)(C)N)C1(c2ccc(F)c(C(F)(F)F)c2)CC1 [Methyl (2-amino-2-methylpropyl)(1-(4-fluoro-3-(trifluoromethyl)phenyl)cyclopropyl)carbamate] |
| < 1 µM | – | 0.5409 mg/ml | 1600 μM | – | COC(=O)N(CCN(C)C)C1(c2ccc(F)c(C(F)(F)F)c2)CC1 [Methyl N-(2-(dimethylamino)ethyl)-N-(1-(4-fluoro-3-(trifluoromethyl)phenyl)cyclopropyl) carbamate] |
| < 0.3 µM | 687 µg/mL and 1500 µM | – | – | – | COC(=O)N(CC1CCN1)C1(c2ccc(F)c(C(F)(F)F)c2)CC1 (centres unmarked) [Methyl (azetidin-2-ylmethyl)(1-(4-fluoro-3-(trifluoromethyl)phenyl)cyclopropyl)carbamate] |
| < 0.3 µM | 565 µg/mL and 1500 µM | – | – | – | CC(C)(N)CN(C1(c2ccc(F)c(C(F)(F)F)c2)CC1)S(C)(=O)=O [N-(2-amino-2-methylpropyl)-N-(1-(4-fluoro-3-(trifluoromethyl)phenyl)cyclopropyl)methanesulfonamide] |
| < 1 µM | 596 µg/mL and 1500 µM | – | – | – | COC(=O)N(CC(C)(C)NC(C)=O)C1(c2ccc(F)c(C(F)(F)F)c2)CC1 [Methyl (2-acetamido-2-methylpropyl)(1-(4-fluoro-3-(trifluoromethyl)phenyl)cyclopropyl)carbamate] |
| < 0.3 µM | 138 µg/mL and 400 µM | – | – | – | COC(=O)N(CC(C)(C)NO)C1(c2ccc(F)c(C(F)(F)F)c2)CC1 [Methyl (1-(4-fluoro-3-(trifluoromethyl)phenyl)cyclopropyl)(2-(hydroxyamino)-2-methylpropyl)carbamate] |
| < 0.3 µM | 27.9 µg/mL and 100 µM | – | – | – | COC(=O)N1CC(N(C(=O)OC)C2(c3ccc(F)c(C(F)(F)F)c3)CC2)C1 [Methyl 3-((1-(4-fluoro-3-(trifluoromethyl)phenyl)cyclopropyl) (methoxycarbonyl)amino)azetidine-1-carboxylate] |
| < 0.3 µM | 575 µg/mL and 1400 µM | – | – | – | COC(=O)N(C[C@]1(C)CCCN1)C1(c2ccc(F)c(C(F)(F)F)c2)CC1 [Methyl (S)-(1-(4-fluoro-3-(trifluoromethyl)phenyl)cyclopropyl)((2-methylpyrrolidin-2-yl)methyl)carbamate] |
| < 1 µM | – | 0.5636 mg/ml | 1500 μM | – | COC(=O)N(CC(C)(C)N)C1(c2cc(C(F)(F)F)c(F)cn2)CC1 [Methyl (2-amino-2-methylpropyl)(1-(5-fluoro-4-(trifluoromethyl)pyridin-2-yl)cyclopropyl) carbamate] |
| < 0.3 µM | – | 0.5599 mg/ml | 1600 μM | – | COC(=O)N(CC1(N)CC1)C1(c2ccc(F)c(C(F)(F)F)c2)CC1 [Methyl ((1-aminocyclopropyl)methyl)(1-(4-fluoro-3-(trifluoromethyl)phenyl)cyclopropyl) carbamate] |
| < 1 µM | – | 0.6118 mg/ml | 1500 μM | – | COC(=O)N(C[C@H]1COCCN1)C1(c2ccc(F)c(C(F)(F)F)c2)CC1 [Methyl (S)-(1-(4-fluoro-3-(trifluoromethyl)phenyl)cyclopropyl)(morpholin-3-ylmethyl) carbamate] |
